Experimental data as given in patent US10143696B2, “Methods and compositions for decreasing gastric emptying” (priority 2015, dated 2018).
Entries after “also recorded” stand apart in the source; their conditions may differ.

How the values were obtained:
[1] = test system: Sprague-Dawley rats; experiment: Repeated oral administration: gastric emptying, food intake, body weight; type: in vivo, rat
Method: (§1) Rats were fasted overnight (16-18 hours) with free access to water. The next morning, compound was administered and animals were individually housed in bedding-free cages with pre-weighed food available ad libitum and access to water for 2 hours. The water and food were then removed and the remaining food was re-weighed. Gastric emptying of the ingested meal was assessed 4 hours later. Animals were euthanized by CO2 inhalation followed by thoracotomy. The abdominal cavity was opened, the pylorus and cardia were clamped and the stomach was removed. The excised stomach was weighed and then opened along the greater curvature, rinsed with tap water, lightly dried and re-weighed. The amount of food in the stomach (grams) was estimated based on the difference between the total weight of the stomach plus its contents and the weight of the stomach after the contents were removed. The meal ingested (food intake) was determined by the difference between pre- and post-feeding weight at the end of the 2 hour period. Gastric emptying during the 4 hour experiment is represented as: Gastric emptying=[1−(gastric content/food intake)]×100. Gastric Secretion
Male, Sprague-Dawley rats (weighing between 240-283 g each and 5-6 rats per test group) were orally dosed with 3 mg/kg, 10 mg/kg or 30 mg/kg of Compound A with a 0.5% MC vehicle or with a 0.5% MC vehicle alone once a day for five days and were then fasted overnight. The rats were then dosed again on the sixth day and placed in individual, bedding-free cages and allowed ad libitium access to pre-weighed food and water for two hours. The food and water were then removed and the food was reweighed. Data were analyzed using a one-way ANOVA followed by a Dunnett's Multiple Comparison Test, where *P<0.05 as compared to the appropriate vehicle. Data are represented as the means+S.E.M. % Gastric Emptying in 4 hours=(1−(gastric content/food intake))×100.

[2] = test system: Sprague-Dawley rats; experiment: Gastric emptying of a test meal in rats; type: in vivo, rat
Method: as §1
Male, Sprague-Dawley rats (weighing between 229-264 g each and 4 rats per test group) were fasted overnight (19 hours). The rats were then orally administered 10 mg/kg, 30 mg/kg or 100 mg/kg of Compound A with a 0.5% MC or Capryol:Solutol:Polyethyleneglycol (CSP) vehicle or with a 0.5% MC or CSP vehicle alone. The rats were then placed in individual, bedding-free cages and allowed ad libitium access to pre-weighed food and water for two hours. The food and water were then removed and the food was reweighed. Gastric emptying was then assessed four hours later by euthanizing the rats and analyzing the stomach and stomach contents. […] Data are represented as the means+the standard error of the means (S.E.M). % Gastric Emptying in 4 hours=(1−(gastric content/food intake))×100. […] Data are represented as the means+S.E.M.
Male, Sprague-Dawley rats (weighing between 235-268 g each and 4-6 rats per test group) were fasted overnight (19 hours). The rats were then subcutaneously administered 10 mg/kg, 30 mg/kg or 100 mg/kg of carbamazepine (Compound B) with a 25% HPBCD vehicle or with a 25% HPBCD vehicle alone. Some test animals were not dosed (i.e., naïve). The rats were then placed in individual, bedding-free cages and allowed ad libitium access to pre-weighed food and water for two hours. The food and water were then removed and the food was reweighed. […] Data are represented as the means+S.E.M. % Gastric Emptying in 4 hours=(1−(gastric content/food intake))×100.
Male, Sprague-Dawley rats (weighing between 238-274 g each and 6 rats per test group) were fasted overnight (19 hours). The rats were then orally administered 30 mg/kg, 100 mg/kg or 300 mg/kg of carbamazepine (Compound B) with a 0.5% MC vehicle or with a 0.5% MC vehicle alone. The rats were then placed in individual, bedding-free cages and allowed ad libitium access to pre-weighed food and water for two hours. The food and water were then removed and the food was reweighed. […] Data are represented as the means+S.E.M. % Gastric Emptying in 4 hours=(1−(gastric content/food intake))×100.
Male, Sprague-Dawley rats (weighing between 235-276 g each and 4-6 rats per test group) were fasted overnight (19 hours).

[3] = test system: CD1 mice; experiment: Gastric emptying of a test meal in mice; type: in vivo
Method: as §1
Male, CD1 mice (weighing between 30-36 g each and 6 mice per test group) were fasted overnight (19 hours). The mice then were subcutaneously administered 3 mg/kg of Compound A with a 25% HPBCD vehicle, a 25% HPBCD vehicle alone, orally administered 100 mg/kg of Compound A with a 0.5% MC vehicle, or a 0.5% MC vehicle alone. The mice were then placed in individual, bedding-free cages and allowed ad libitium access to pre-weighed food and water for two hours. The food and water were then removed and the food was reweighed. Gastric emptying was assessed four hours later by euthanizing the mice and analyzing the stomach and stomach contents. Data were analyzed using an unpaired t-test where *P<0.05 and ***P<0.001 and represented as the means+S.E.M. % Gastric Emptying in 4 hours=(1−(gastric content/food intake)×100).

[4] = 30 mg/kg p.o. once a day, over 5 days
[5] = p.o. 3, 10, 30 mg/kg once a day for 6 days, 0.5% MC
[6] = naïve rats, p.o. 100 mg/kg, 0.5% MC (Example 13)
[7] = p.o. 10, 30, 100 mg/kg, 0.5% MC or CSP vehicle (Example 1)
[8] = p.o. 100 mg/kg, 0.5% MC vehicle

C[C@H](Nc1cc(C(N)=O)nc(-c2ccc(Oc3ccc(OC(F)(F)F)cc3)cc2)n1)C(N)=O [Compound A]
body weight lost as a percentage of total body weight [1, 4]: 2.6% | mean body weight loss [1, 4]: 6.3 g | body weight ([1]; measured on day 5, p.o. 3, 10, 30 mg/kg once a day): decreased for all Compound A dosage levels | % Gastric Emptying in 4 hours [1, 5]: inhibited the percentage of gastric emptying | food intake [1, 5]: decrease in food intake | % Gastric Emptying in 4 hours ([2]; Compound A 3 mg/kg s.c. alone, 25% HPBCD (Examples 11, 12), 3 mg/kg): inhibits the percent of gastric emptying independently | gastric emptying ([2]; administered subcutaneously (Example 9)): decrease in gastric emptying | gastric emptying inhibition potency of Compound A with a CSP vehicle compared to Compound D in 25% HPBCD ([2]; all dosages tested): maintains a greater gastric emptying inhibition potency as compared to Compound D | gastric emptying inhibition potency compared between compounds ([2]; comparison at equal or similar dosages, routes and vehicles): greater gastric emptying inhibition potency than Compound B; also recorded: greater gastric emptying inhibition potency when compared to Compound B; also recorded: greater gastric emptying inhibition potency at lower dosages; also recorded: highest in vivo potency | gastric emptying ([2]; lowest dose tested orally, 10 mg/kg): ~0% | % Gastric Emptying in 4 hours [2, 6]: statistically significant decrease in gastric emptying | stomach weight [2, 6]: increase in stomach weight | % Gastric Emptying in 4 hours [2, 7]: increased inhibition of gastric emptying | stomach weight [2, 7]: increased stomach weight | gastric emptying inhibition and stomach weight increase, CSP vehicle compared to 0.5% MC vehicle ([2]; p.o. 10-100 mg/kg (Example 1)): greater inhibiting effect on gastric emptying and stomach weight increase was observed with a CSP vehicle | food intake ([2]; rat, in vivo): decreased food intake | stomach weight ([2]; rat, in vivo): increased stomach weight | stomach weight and food intake ([2]; rat, in vivo): comparable to that of Compound A alone | increase in potency on gastric emptying, subcutaneous as compared to oral administration ([2]; s.c. vs p.o.): 3-10 fold | food intake ([2]; vagotomized and naïve rats, p.o. 100 mg/kg (Example 13)): Food intake is inhibited | stomach weight ([2]; vagotomized rats, p.o. 100 mg/kg, 0.5% MC, vs vagotomy alone (Example 13)): not statically significantly different from vagotomy alone | % Gastric Emptying in 4 hours ([2]; vagotomized rats, p.o. 100 mg/kg, 0.5% MC, vs vagotomy alone (Example 13), 100 mg/kg): numerically additive effect on the inhibition of gastric emptying but not a statistically significant effect; also recorded: not statically significantly different from vagotomy alone | % Gastric Emptying in 4 hours [3, 8]: inhibit gastric emptying | stomach weight [3, 8]: stomach weight increase | % Gastric Emptying in 4 hours ([3]; s.c. 3 mg/kg, 25% HPBCD vehicle): inhibit gastric emptying
